From PubChem BioAssay (NCI)
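Method: 48-hour compound exposure of cells in 96-well plates, five concentrations, linear interpolation of endpoints. At the GI50, growth is halved. TGI: concentration producing complete growth inhibition.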

How the values were obtained:
Assay in all cases: NCI anticancer screen, dose series, 48 h
UO-31 renal = tested on: UO-31 renal
SNB-75 CNS = tested on: SNB-75 CNS
MCF7 breast = tested on: MCF7 breast
NCI-H460 lung = tested on: NCI-H460 lung
SK-OV-3 ovarian = tested on: SK-OV-3 ovarian
HS 578T breast = tested on: HS 578T breast
HCT-15 colon = tested on: HCT-15 colon
MOLT-4 leukemia = tested on: MOLT-4 leukemia
OVCAR-8 ovarian = tested on: OVCAR-8 ovarian
A549 NSCLC = tested on: A549 NSCLC
MDA-MB-435 = tested on: MDA-MB-435
U251 CNS = tested on: U251 CNS
NCI/ADR-RES ovarian = tested on: NCI/ADR-RES ovarian
SF-268 CNS = tested on: SF-268 CNS
CCRF-CEM leukemia = tested on: CCRF-CEM leukemia
NCI-H522 lung = tested on: NCI-H522 lung
NCI-H23 lung = tested on: NCI-H23 lung
TK-10 renal = tested on: TK-10 renal
PC-3 prostate = tested on: PC-3 prostate
OVCAR-3 ovarian = tested on: OVCAR-3 ovarian
HL-60(TB) leukemia = tested on: HL-60(TB) leukemia
M14 melanoma = tested on: M14 melanoma
SK-MEL-5 melanoma = tested on: SK-MEL-5 melanoma
NCI-H226 lung = tested on: NCI-H226 lung
OVCAR-5 ovarian = tested on: OVCAR-5 ovarian
ACHN renal = tested on: ACHN renal
HOP-92 NSCLC = tested on: HOP-92 NSCLC
SK-MEL-2 melanoma = tested on: SK-MEL-2 melanoma
OVCAR-4 ovarian = tested on: OVCAR-4 ovarian
SK-MEL-28 melanoma = tested on: SK-MEL-28 melanoma
K-562 leukemia = tested on: K-562 leukemia
MALME-3M melanoma = tested on: MALME-3M melanoma
IGROV1 ovarian = tested on: IGROV1 ovarian
SF-539 CNS = tested on: SF-539 CNS
BT-549 breast = tested on: BT-549 breast
HT29 colon = tested on: HT29 colon
CAKI-1 renal = tested on: CAKI-1 renal
RXF 393 renal = tested on: RXF 393 renal
COLO 205 colon = tested on: COLO 205 colon
LOX IMVI melanoma = tested on: LOX IMVI melanoma
EKVX NSCLC = tested on: EKVX NSCLC
RPMI-8226 leukemia = tested on: RPMI-8226 leukemia
SF-295 CNS = tested on: SF-295 CNS
SNB-19 CNS = tested on: SNB-19 CNS
SW-620 colon = tested on: SW-620 colon
SR leukemia = tested on: SR leukemia
KM12 colon = tested on: KM12 colon
A498 renal = tested on: A498 renal
DU-145 prostate = tested on: DU-145 prostate
MDA-MB-231 breast = tested on: MDA-MB-231 breast
786-0 renal = tested on: 786-0 renal
UACC-62 melanoma = tested on: UACC-62 melanoma
UACC-257 melanoma = tested on: UACC-257 melanoma
HCT-116 colon = tested on: HCT-116 colon
HOP-62 NSCLC = tested on: HOP-62 NSCLC
HCC-2998 colon = tested on: HCC-2998 colon
T-47D breast = tested on: T-47D breast
SN12C renal = tested on: SN12C renal

Compound: Cc1nn(-c2ccccc2)c2ncnc(N/N=C/c3ccccc3O)c12
- GI50 (UO-31 renal): 325 nM
- TGI (UO-31 renal): 2850 nM
- GI50 (SNB-75 CNS): 267 nM
- TGI (SNB-75 CNS): 2990 nM
- GI50 (MCF7 breast): 353 nM
- TGI (MCF7 breast): 12500 nM
- GI50 (NCI-H460 lung): 382 nM
- TGI (NCI-H460 lung): > 78400 nM
- GI50 (SK-OV-3 ovarian): 465 nM
- TGI (SK-OV-3 ovarian): 4720 nM
- GI50 (HS 578T breast): 1830 nM
- TGI (HS 578T breast): > 100000 nM
- GI50 (HCT-15 colon): 266 nM
- TGI (HCT-15 colon): 17500 nM
- GI50 (MOLT-4 leukemia): 280 nM
- TGI (MOLT-4 leukemia): > 59000 nM
- GI50 (OVCAR-8 ovarian): 354 nM
- TGI (OVCAR-8 ovarian): > 100000 nM
- GI50 (A549 NSCLC): 936 nM
- TGI (A549 NSCLC): > 41900 nM
- GI50 (MDA-MB-435): 544 nM
- TGI (MDA-MB-435): > 100000 nM
- GI50 (U251 CNS): 425 nM
- TGI (U251 CNS): > 49500 nM
- GI50 (NCI/ADR-RES ovarian): 331 nM
- TGI (NCI/ADR-RES ovarian): 8540 nM
- GI50 (SF-268 CNS): 300 nM
- TGI (SF-268 CNS): > 100000 nM
- GI50 (CCRF-CEM leukemia): 140 nM
- TGI (CCRF-CEM leukemia): > 100000 nM
- GI50 (NCI-H522 lung): 416 nM
- TGI (NCI-H522 lung): 44900 nM
- GI50 (NCI-H23 lung): 509 nM
- TGI (NCI-H23 lung): 25500 nM
- GI50 (TK-10 renal): 2970 nM
- TGI (TK-10 renal): > 70600 nM
- GI50 (PC-3 prostate): 345 nM
- TGI (PC-3 prostate): > 49700 nM
- GI50 (OVCAR-3 ovarian): 306 nM
- TGI (OVCAR-3 ovarian): 46300 nM
- GI50 (HL-60(TB) leukemia): 370 nM
- TGI (HL-60(TB) leukemia): > 100000 nM
- GI50 (M14 melanoma): 270 nM
- TGI (M14 melanoma): 1640 nM
- GI50 (SK-MEL-5 melanoma): 621 nM
- TGI (SK-MEL-5 melanoma): 4720 nM
- GI50 (NCI-H226 lung): 2550 nM
- TGI (NCI-H226 lung): 8590 nM
- GI50 (OVCAR-5 ovarian): 3850 nM
- TGI (OVCAR-5 ovarian): > 100000 nM
- GI50 (ACHN renal): 283 nM
- TGI (ACHN renal): 40400 nM
- GI50 (HOP-92 NSCLC): 455 nM
- TGI (HOP-92 NSCLC): 6750 nM
- GI50 (SK-MEL-2 melanoma): 633 nM
- TGI (SK-MEL-2 melanoma): 47100 nM
- GI50 (OVCAR-4 ovarian): 303 nM
- TGI (OVCAR-4 ovarian): > 54300 nM
- GI50 (SK-MEL-28 melanoma): 481 nM
- TGI (SK-MEL-28 melanoma): > 100000 nM
- GI50 (K-562 leukemia): 397 nM
- TGI (K-562 leukemia): > 100000 nM
- GI50 (MALME-3M melanoma): 505 nM
- TGI (MALME-3M melanoma): 11800 nM
- GI50 (IGROV1 ovarian): 597 nM
- TGI (IGROV1 ovarian): 16500 nM
- GI50 (SF-539 CNS): 396 nM
- TGI (SF-539 CNS): 7130 nM
- GI50 (BT-549 breast): 996 nM
- TGI (BT-549 breast): 41900 nM
- GI50 (HT29 colon): 1120 nM
- TGI (HT29 colon): > 50000 nM
- GI50 (CAKI-1 renal): 943 nM
- TGI (CAKI-1 renal): 8860 nM
- GI50 (RXF 393 renal): 882 nM
- TGI (RXF 393 renal): 9110 nM
- GI50 (COLO 205 colon): 385 nM
- TGI (COLO 205 colon): 22900 nM
- GI50 (LOX IMVI melanoma): 317 nM
- TGI (LOX IMVI melanoma): 5730 nM
- GI50 (EKVX NSCLC): 391 nM
- TGI (EKVX NSCLC): > 43300 nM
- GI50 (RPMI-8226 leukemia): 394 nM
- TGI (RPMI-8226 leukemia): 33200 nM
- GI50 (SF-295 CNS): 407 nM
- TGI (SF-295 CNS): 11700 nM
- GI50 (SNB-19 CNS): 507 nM
- TGI (SNB-19 CNS): > 100000 nM
- GI50 (SW-620 colon): 537 nM
- TGI (SW-620 colon): > 96000 nM
- GI50 (SR leukemia): 232 nM
- TGI (SR leukemia): > 100000 nM
- GI50 (KM12 colon): 382 nM
- TGI (KM12 colon): > 100000 nM
- GI50 (A498 renal): 2820 nM
- TGI (A498 renal): 11200 nM
- GI50 (DU-145 prostate): 318 nM
- TGI (DU-145 prostate): > 100000 nM
- GI50 (MDA-MB-231 breast): 529 nM
- TGI (MDA-MB-231 breast): 53300 nM
- GI50 (786-0 renal): 396 nM
- TGI (786-0 renal): 27700 nM
- GI50 (UACC-62 melanoma): 2010 nM
- TGI (UACC-62 melanoma): 12100 nM
- GI50 (UACC-257 melanoma): 1810 nM
- TGI (UACC-257 melanoma): 31100 nM
- GI50 (HCT-116 colon): 422 nM
- TGI (HCT-116 colon): 27300 nM
- GI50 (HOP-62 NSCLC): 288 nM
- TGI (HOP-62 NSCLC): 6230 nM
- GI50 (HCC-2998 colon): 793 nM
- TGI (HCC-2998 colon): 35200 nM
- GI50 (T-47D breast): 1920 nM
- TGI (T-47D breast): 13700 nM
- GI50 (SN12C renal): 520 nM
- TGI (SN12C renal): > 49600 nM
